Test [1] relates to BB/W diabetic rats. As to the kind of experiment: Progression of neuropathic pain in BB/W model (withdrawal latency). Format: in vivo. Conditions: 10 mg/kg i.p. daily; vs diabetic vehicle-treated rats, from 4 weeks through six months of treatment, FIG. 11. From the text:
In vivo Assay of NAALADase Inhibitors on Progression of Neuropathic Pain in BB/W Models
(§1) Male BB/W rats (BRI, Mass) spontaneously develop a cell mediated autoimmune destruction of pancreatic B cells, resulting in onset of insulin-dependent (Type I) diabetes (Awata, Guberski, Endocrinology (1995) 136(12):5731–5). […] This renders them valuable for experimental trials of new compounds for future treatments of this major disorder. In the present study, Compound A and Compound D were examined for their ability to alter the progression of diabetic neuropathy. The rats received daily injection of Compound A or Compound D (10 mg/kg i.p.) or vehicle, starting at the onset of diabetes (hyperglycemia) and up to 6 months thereafter. Another group of non-diabetic rats also receiving vehicle were tested. All animals were continuously monitored for body weight, urine volume, blood sugar and glycated haemoglobin. In the first month of the study, all animals were tested for thermal nociception in a Hargreaves apparatus, weekly. After the first month this was done biweekly and then monthly. The testing consists of directing an infrared heat source onto the dorsal surface of the rat hindpaw and noting the time taken for the animal to remove its paw (see Hargreaves et al., J. Biol. Chem. (1988) 263(36):19392–7 for a description of the experimental method). […]

In test [2] the test system is BB/W diabetic rats. As to the kind of experiment: Nerve conduction velocity in BB/W model. The format is in vivo. The conditions noted are these: 10 mg/kg daily; vs diabetic vehicle controls, from 8 weeks to six months, FIG. 12.
Source text: as §1, with “monthly.” for “monthly. The testing consists of directing an infrared heat source onto the dorsal surface of the rat hindpaw and noting the time taken for the animal to remove its paw (see Hargreaves et al., J. Biol. Chem. (1988) 263(36):19392–7 for a description of the experimental method).”
Nerve conduction velocity was also measured every two weeks through the first eight weeks of treatment and every month thereafter through to the six months of treatment (see De Koning et al., Peptides, Vol. 8, No. 3, pp. 415–22 (1987) for a description of the experimental method). […]

Test [3] concerns transgenic G1H mice. As to the kind of experiment: Onset of ALS in transgenic mice model of FALS. The format is in vivo. The conditions noted are these: for DISEASE ONSET: 50 mg/kg daily intraperitoneal. The procedure: Effect of NAALADase Inhibitors on Onset of ALS
The effect of NAALADase inhibitors on the onset of ALS was tested using the transgenic mice model of familial amyotrophic lateral sclerosis (“FALS”), which is detailed in Gurney, M., Annals of Neurology (1996) 39:147–157, and otherwise well known in the art. One month old transgenic G1H mice were treated with daily intraperitoneal injections of a vehicle (50 mM HEPES-buffered saline) or a NAALADase inhibitor (50 mg/kg Compound A). Clinical symptoms of the mice were monitored daily. The onset of clinical disease was scored by examining each mouse for its shaking of limbs when suspended in the air by its tail, cross spread of spinal reflexes, hindlimb paralysis, body weight and wheel running activity.

The test system of test [4] is rats with unilaterally transected optic nerve. As to the kind of experiment: Optic nerve transection (optic nerve fiber counting). Format: in vivo, Rattus norvegicus. The conditions noted are these: for FIBER NUMBER: 10 mg/kg daily intraperitoneal. The procedure: All experiments complied with the Association for Research in Vision and Ophthalmology Statement for the Use of Animals in Ophthalmic and Vision Research. 82 male Brown Norway rats (Rattus norvegicus), each weighing approximately 250 gm, were treated using procedures approved by the Animal Care Committee of the Johns Hopkins University School of Medicine. The rats were housed with a 12 hour light/12 hour dark cycle and fed ad libitum.
OPTIC NERVE TRANSECTION: The optic nerve was transected unilaterally in 26 rats under intraperitoneal pentobarbital anesthesia. The conjunctiva was opened with scissors and the optic nerve exposed by traction on extraocular muscles. The transection was performed with microscissors 5 mm posterior to the globe, with specific attention to avoidance of injury to major ocular blood vessels. Immediately after transection, the retina was examined ophthalmoscopically to assure that the retinal arterial blood supply was not disrupted. The conjunctiva was closed with absorbable suture and the eye dressed with antibiotic ointment. Beginning on the day of transection, the rats were treated daily with intraperitoneal injections of either a vehicle (9 rats with 50 mM HEPES-buffered saline) or a NAALADase inhibitor (8 rats with 10 mg/kg of Compound A and 9 rats with 10 mg/kg of Compound B). 5 saline treated rats, 3 Compound A treated rats, and 4 Compound B treated rats were sacrificed at 2 weeks, and the remaining rats at 4 weeks, after transection.
OPTIC NERVE COUNTING: The rats were sacrificed by exsanguination under deep pentobarbital anesthesia. They were perfused through the heart with 2% paraformaldehyde/2% glutaraldehyde in 0.1 M phosphate buffer, pH 7.2, and the eyes with attached optic nerves were removed. A cross-section of the optic nerve from both experimental (glaucoma or transection) and control eyes was removed 1.5 mm posterior to the globe, 1 mm in thickness, and post-fixed in 2% osmium tetroxide in buffer. These were processed into epoxy resin, sectioned at 1 micron and stained with toluidine blue.
The area of the optic nerve cross-section was measured by outlining its outer border at 10× magnification on an image analysis system (Universal Imaging Corp., Westchester, Pa.) with Synsys digital camera and Metamorph software. Three area measurements were taken and the mean value was determined. To measure the density and fiber diameter distributions, images were captured with a 100× phase contrast objective from 10 different areas of each nerve. These were edited to eliminate non-neural objects and the size of each axon internal to the myelin sheath (its minimum diameter) and the density of axons/square mm were calculated for each image and nerve. The mean density was multiplied by total nerve area to yield fiber number for each nerve. The total fiber number in glaucoma or transection nerves was compared to the normal, fellow eye of each rat to yield a percent loss value. The number of axons counted among the 10 images was an approximately 20% sample of the 80–90,000 axons in normal rat nerves. The person measuring axon number was masked to the protocol conducted on the nerves.

[5] abbreviates: 2 weeks survival after transection.
Where [6] appears, read: 4 weeks survival after transection.

Each structure is given as a SMILES string.

Turning to `O=C(O)CCC(CP(=O)(O)Cc1c(F)c(F)c(F)c(F)c1F)C(=O)O` (centres unmarked) [Compound A], the withdrawal latency entry in test [1] was “longer withdrawal latencies”. Further, the nerve conduction velocity result in test [2] is “significantly less severe nerve conduction deficits”. In test [3] (Study 1), the “DIFFERENCE in disease onset vs vehicle” value stood at 32 and the “DISEASE ONSET” value came to 221 days. For the same compound, in test [3] (Study 2), the “DIFFERENCE in disease onset vs vehicle” value is listed as 25 and the “DISEASE ONSET” value is recorded as 166 days. Also, in test [4] (2 weeks after transection), the “remaining axons relative to the saline-treated rats” value was 3 times. Also, in test [4] (setting [5]), the “PERCENT DIFFERENCE in fiber number” value is listed as 65.3 ± 30.9% and the “FIBER NUMBER” value was 26,426 ± 23,025. In addition, in test [4] (setting [6]), the “PERCENT DIFFERENCE in fiber number” value is given as 82.4 ± 8.9% and the “FIBER NUMBER” value was 13,599 ± 7,868.

Values taken from patent publication US7138543B2, “Thiolalkyl benzoic acid derivatives” (Guilford Pharmaceuticals Inc., priority 2001, dated 2006).
